# From ChEMBL document CHEMBL1201862, “PubChem BioAssay data set” (2004)
#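 Dose response: 5 concentrations. Exposure: 48 h. Format: 96-well plates. Endpoint: linear interpolation; highest concentration if not reached. The concentration for 50% growth inhibition is given as GI50.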 Activity calls are given as the source filed them. No stated cut-off is given here; in the data, active = GI50 up to about 1.1 µM and inactive = higher.
# Legend:
# Assay in all cases: NCI tumour cell line growth inhibition, 48 h
# [1] = tested on: CAKI-1
# [2] = tested on: HL-60
# [3] = tested on: SR
# [4] = tested on: SNB-19
# [5] = tested on: EKVX
# [6] = tested on: OVCAR-5
# [7] = tested on: MOLT-4
# [8] = tested on: NCI-H23
# [9] = tested on: MDA-MB-435
# [10] = tested on: ACHN
# [11] = tested on: HCC 2998
# [12] = tested on: HCT-15
# [13] = tested on: DU-145
# [14] = tested on: T47D
# [15] = tested on: MDA-N
# [16] = tested on: U-251
# [17] = tested on: SK-OV-3
# [18] = tested on: OVCAR-3
Structure (SMILES),GI50 [1],GI50 [2],GI50 [3],GI50 [4],GI50 [5],GI50 [6],GI50 [7],GI50 [8],GI50 [9],GI50 [10],GI50 [11],GI50 [12] [µM],GI50 [13],GI50 [14],GI50 [15],GI50 [16],GI50 [17],GI50 [18]
N#CC1C=Cc2ccccc2N1C(=O)Oc1ccccc1 (stereo unspecified),84.3 µM (inactive),19.3 µM (inactive),33.8 µM (inactive),74.8 µM (inactive),42.4 µM (inactive),> 100 µM (inactive),28.2 µM (inactive),58.9 µM (inactive),23.7 µM (inactive),50.2 µM (inactive),40.1 µM (inactive),42.1,31.9 µM (inactive),28.2 µM (inactive),35.4 µM (inactive),44.1 µM (inactive),,
O=C1c2cscc2C(=O)c2c(OCc3ccccc3)ccc(OCc3ccccc3)c21,> 100 µM (inactive),96.4 µM (inactive),54 µM (inactive),> 100 µM (inactive),> 100 µM (inactive),> 100 µM (inactive),> 100 µM (inactive),> 100 µM (inactive),> 100 µM (inactive),> 100 µM (inactive),53.1 µM (inactive),,> 100 µM (inactive),> 100 µM (inactive),> 100 µM (inactive),,> 100 µM (inactive),> 100 µM (inactive)
CC(=O)CC1(CBr)Nc2ccc([N+](=O)[O-])cc2NC1=O (stereo unspecified),> 100 µM (inactive),,34 µM (inactive),> 100 µM (inactive),> 100 µM (inactive),> 100 µM (inactive),42.9 µM (inactive),> 100 µM (inactive),> 100 µM (inactive),> 100 µM (inactive),> 100 µM (inactive),82.6,42.1 µM (inactive),42.9 µM (inactive),> 100 µM (inactive),> 100 µM (inactive),> 100 µM (inactive),28.1 µM (inactive)
O=[N+]([O-])/C=C1\COCc2cc3c(cc21)OCO3,13 µM (inactive),25.2 µM (inactive),18.9 µM (inactive),,28.1 µM (inactive),19.9 µM (inactive),24.5 µM (inactive),12.1 µM (inactive),14.5 µM (inactive),20.8 µM (inactive),18 µM (inactive),19.1,19.1 µM (inactive),15.9 µM (inactive),18.9 µM (inactive),18.6 µM (inactive),42.7 µM (inactive),16.8 µM (inactive)
Nc1ccc2nc3ccc(N)cc3[n+](-c3ccccc3)c2c1,> 100 µM (inactive),> 100 µM (inactive),98.6 µM (inactive),40.4 µM (inactive),> 100 µM (inactive),29.9 µM (inactive),,22.8 µM (inactive),50.4 µM (inactive),72.3 µM (inactive),> 100 µM (inactive),> 100,68.2 µM (inactive),7.78 µM (inactive),49.8 µM (inactive),38.5 µM (inactive),> 100 µM (inactive),6.4 µM (inactive)
CCOC(=O)C1C[C@H]2CO[C@H](c3ccccc3)N2C1=O (stereo partly specified),> 100 µM (inactive),,> 100 µM (inactive),> 100 µM (inactive),> 100 µM (inactive),> 100 µM (inactive),> 100 µM (inactive),> 100 µM (inactive),> 100 µM (inactive),> 100 µM (inactive),73.8 µM (inactive),> 100,> 100 µM (inactive),> 100 µM (inactive),> 100 µM (inactive),> 100 µM (inactive),,> 100 µM (inactive)
O=C(Nn1c(-c2ccccc2)nc2ccccc2c1=O)c1ccc(O)cc1,,> 100 µM (inactive),> 100 µM (inactive),> 100 µM (inactive),61 µM (inactive),> 100 µM (inactive),> 100 µM (inactive),> 100 µM (inactive),> 100 µM (inactive),> 100 µM (inactive),> 100 µM (inactive),> 100,> 100 µM (inactive),> 100 µM (inactive),> 100 µM (inactive),> 100 µM (inactive),> 100 µM (inactive),> 100 µM (inactive)
NCc1nnn(Cc2ccccc2)c1N,> 100 µM (inactive),> 100 µM (inactive),> 100 µM (inactive),> 100 µM (inactive),> 100 µM (inactive),> 100 µM (inactive),> 100 µM (inactive),> 100 µM (inactive),> 100 µM (inactive),> 100 µM (inactive),,> 100,> 100 µM (inactive),> 100 µM (inactive),> 100 µM (inactive),> 100 µM (inactive),> 100 µM (inactive),> 100 µM (inactive)
CC(CO)CCNc1ncnc2c1ncn2CCC(=O)O (stereo unspecified),> 100 µM (inactive),> 100 µM (inactive),> 100 µM (inactive),> 100 µM (inactive),> 100 µM (inactive),> 100 µM (inactive),> 100 µM (inactive),> 100 µM (inactive),> 100 µM (inactive),> 100 µM (inactive),,,> 100 µM (inactive),> 100 µM (inactive),> 100 µM (inactive),,> 100 µM (inactive),> 100 µM (inactive)
COC(=O)c1ccccc1C1CN=NC12Cc1c(C)cc(C)cc1C2=O (stereo unspecified),> 100 µM (inactive),> 100 µM (inactive),,> 100 µM (inactive),> 100 µM (inactive),> 100 µM (inactive),> 100 µM (inactive),> 100 µM (inactive),> 100 µM (inactive),> 100 µM (inactive),> 100 µM (inactive),> 100,> 100 µM (inactive),> 100 µM (inactive),> 100 µM (inactive),> 100 µM (inactive),> 100 µM (inactive),> 100 µM (inactive)
O=C1c2[nH]c3ccccc3c2CCN2CCCCC12 (stereo unspecified),38.2 µM (inactive),1.8 µM (inactive),,24.9 µM (inactive),23.4 µM (inactive),21.6 µM (inactive),17.3 µM (inactive),21.8 µM (inactive),16.7 µM (inactive),21.9 µM (inactive),17.2 µM (inactive),31.9,36.4 µM (inactive),25.7 µM (inactive),19.1 µM (inactive),18.8 µM (inactive),31.1 µM (inactive),19.7 µM (inactive)
c1ccc2c[n+](CCCC[n+]3ccc4ccccc4c3)ccc2c1,> 100 µM (inactive),> 100 µM (inactive),> 100 µM (inactive),21.8 µM (inactive),> 100 µM (inactive),> 100 µM (inactive),,> 100 µM (inactive),> 100 µM (inactive),> 100 µM (inactive),> 100 µM (inactive),> 100,> 100 µM (inactive),> 100 µM (inactive),> 100 µM (inactive),> 100 µM (inactive),> 100 µM (inactive),> 100 µM (inactive)
NC(=S)N/N=C1\NC(=O)/C(=C/c2ccc3c(c2)OCO3)S1,25.3 µM (inactive),20.6 µM (inactive),,18 µM (inactive),21.6 µM (inactive),24.2 µM (inactive),21.4 µM (inactive),22.9 µM (inactive),27.1 µM (inactive),32.1 µM (inactive),33.7 µM (inactive),26.7,28.2 µM (inactive),19.3 µM (inactive),27.5 µM (inactive),22.6 µM (inactive),30 µM (inactive),19.2 µM (inactive)
N#CCC(=O)Nn1c(CC#N)nnc1Cc1ccccc1,> 100 µM (inactive),> 100 µM (inactive),> 100 µM (inactive),> 100 µM (inactive),,> 100 µM (inactive),> 100 µM (inactive),> 100 µM (inactive),> 100 µM (inactive),> 100 µM (inactive),> 100 µM (inactive),> 100,> 100 µM (inactive),> 100 µM (inactive),> 100 µM (inactive),> 100 µM (inactive),,> 100 µM (inactive)
O=C1CSC(c2c[nH]c3ccccc23)N1c1ccccc1[N+](=O)[O-] (stereo unspecified),,> 100 µM (inactive),> 100 µM (inactive),> 100 µM (inactive),> 100 µM (inactive),> 100 µM (inactive),> 100 µM (inactive),> 100 µM (inactive),> 100 µM (inactive),,> 100 µM (inactive),> 100,> 100 µM (inactive),> 100 µM (inactive),> 100 µM (inactive),> 100 µM (inactive),> 100 µM (inactive),> 100 µM (inactive)
O=C1CC(=O)NC(NNS(=O)(=O)c2ccccc2)=N1,> 100 µM (inactive),,> 100 µM (inactive),> 100 µM (inactive),,> 100 µM (inactive),> 100 µM (inactive),> 100 µM (inactive),> 100 µM (inactive),> 100 µM (inactive),> 100 µM (inactive),> 100,> 100 µM (inactive),> 100 µM (inactive),> 100 µM (inactive),> 100 µM (inactive),> 100 µM (inactive),> 100 µM (inactive)
CC(C)(C)c1ccc(CN2CCN(C(c3ccccc3)c3ccc(Cl)cc3)CC2)cc1 (stereo unspecified),> 100 µM (inactive),,62.2 µM (inactive),> 100 µM (inactive),32.1 µM (inactive),60.1 µM (inactive),44.6 µM (inactive),83.6 µM (inactive),57.9 µM (inactive),68.5 µM (inactive),31 µM (inactive),29.9,> 100 µM (inactive),24.2 µM (inactive),49.4 µM (inactive),45.1 µM (inactive),> 100 µM (inactive),58.7 µM (inactive)
